According to US20230233569A1 (Revolution Medicines, Inc., priority 2020, published 2023):

Tests used:
NCI-H358 (K-Ras G12C) = assay: CellTiter-Glo cell viability assay, 5-day treatment; type: cell-based; conditions: Homo sapiens, NCI-H358, 120 h, 5-day treatment; read-out: H358 Cell Viability assay data (K-Ras G12C, IC50)
Outline: (§1)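 Seeded cells received test compound by direct dispensing. On day 5 the plates sat at room temperature approximately 30 minutes, then luminescence was measured. Data were normalized to DMSO and curve-fitted with four parameters.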

Capan-1 (K-Ras G12V) = assay: as above; type: cell-based; conditions: Homo sapiens, CAPAN-1, 120 h, 5-day treatment; read-out: Capan-1 Cell Viability assay data (K-Ras G12V, IC50)
Outline: as §1

KRAS G13D = KRAS G13D (Homo sapiens, UniProt P01116+P62937, G13D); assay: Disruption of BRAF RBD interaction with Ras (FRET / MOA assay, with Cyclophilin A); type: biochemical; conditions: KRAS G13D; read-out: KRAS G13D FRET data IC50
KRAS G13D, sequence (P01116 1-169 isoform P01116-2 G13D limits assumed): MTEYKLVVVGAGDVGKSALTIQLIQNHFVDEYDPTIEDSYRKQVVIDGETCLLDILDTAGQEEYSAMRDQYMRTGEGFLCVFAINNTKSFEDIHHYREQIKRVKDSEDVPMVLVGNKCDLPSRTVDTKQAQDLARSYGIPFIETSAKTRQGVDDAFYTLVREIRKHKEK
KRAS G13D, sequence (P62937 whole entry): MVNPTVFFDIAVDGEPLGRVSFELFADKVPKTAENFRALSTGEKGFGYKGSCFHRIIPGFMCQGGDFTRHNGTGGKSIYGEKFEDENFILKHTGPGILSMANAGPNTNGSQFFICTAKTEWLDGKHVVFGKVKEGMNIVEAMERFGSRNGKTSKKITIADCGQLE
Outline: (§2)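 Here, compound titrations (ten points, factor 3, from 30 μM final) act on nucleotide-bound K-Ras and Cyclophilin A, and ternary complex formation disrupts the RAF RBD interaction.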

KRAS G12V = KRAS G12V (Homo sapiens, UniProt P01116+P62937, G12V); assay: as above; type: biochemical; conditions: KRAS G12V; read-out: KRAS G12V FRET data IC50
KRAS G12V, sequence (P01116 1-169 isoform P01116-2 G12V limits assumed): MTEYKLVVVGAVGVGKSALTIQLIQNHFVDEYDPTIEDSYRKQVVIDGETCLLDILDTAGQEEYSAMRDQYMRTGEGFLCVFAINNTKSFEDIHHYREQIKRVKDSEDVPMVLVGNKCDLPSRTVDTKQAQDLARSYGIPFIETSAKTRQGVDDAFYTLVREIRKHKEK
KRAS G12V, sequence (P62937 whole entry): as the sequence (P62937 whole entry) above
Outline: as §2

KRAS G12S = KRAS G12S (Homo sapiens, UniProt P01116+P62937, G12S); assay: as above; type: biochemical; conditions: read-out: KRAS G12S FRET data, IC50
KRAS G12S, sequence (P01116 1-169 isoform P01116-2 G12S limits assumed): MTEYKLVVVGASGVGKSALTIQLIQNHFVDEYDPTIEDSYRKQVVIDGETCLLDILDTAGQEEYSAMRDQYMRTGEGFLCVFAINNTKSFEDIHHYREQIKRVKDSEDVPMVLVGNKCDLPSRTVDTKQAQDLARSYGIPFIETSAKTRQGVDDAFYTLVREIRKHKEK
KRAS G12S, sequence (P62937 whole entry): as the sequence (P62937 whole entry) above
Outline: as §2

NRAS G12C = NRAS G12C (Homo sapiens, UniProt P01111+P62937, G12C); assay: as above; type: biochemical; conditions: NRAS G12C; read-out: NRAS G12C FRET data IC50
NRAS G12C, sequence (P01111 whole entry G12C): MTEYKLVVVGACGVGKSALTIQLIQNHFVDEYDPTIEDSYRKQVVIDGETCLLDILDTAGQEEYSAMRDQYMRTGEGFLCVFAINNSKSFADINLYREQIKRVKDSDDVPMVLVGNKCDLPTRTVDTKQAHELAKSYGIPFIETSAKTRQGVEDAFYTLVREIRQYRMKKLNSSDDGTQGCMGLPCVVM
NRAS G12C, sequence (P62937 whole entry): as the sequence (P62937 whole entry) above

KRAS WT = KRAS WT (Homo sapiens, UniProt P01116+P62937); assay: as above; type: biochemical; conditions: KRAS WT; read-out: KRAS WT FRET data IC50
KRAS WT, sequence (P01116 1-169 isoform P01116-2 limits assumed): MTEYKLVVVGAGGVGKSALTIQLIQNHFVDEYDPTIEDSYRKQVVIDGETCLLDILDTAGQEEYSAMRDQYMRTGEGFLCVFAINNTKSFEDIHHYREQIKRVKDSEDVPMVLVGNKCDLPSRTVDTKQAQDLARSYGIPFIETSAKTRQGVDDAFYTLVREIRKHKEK
KRAS WT, sequence (P62937 whole entry): as the sequence (P62937 whole entry) above
Outline: as §2

KRAS G12C = KRAS G12C (Homo sapiens, UniProt P01116+P62937, G12C); assay: as above; type: biochemical; conditions: read-out: KRAS G12C FRET data, IC50
KRAS G12C, sequence (P01116 1-169 isoform P01116-2 G12C): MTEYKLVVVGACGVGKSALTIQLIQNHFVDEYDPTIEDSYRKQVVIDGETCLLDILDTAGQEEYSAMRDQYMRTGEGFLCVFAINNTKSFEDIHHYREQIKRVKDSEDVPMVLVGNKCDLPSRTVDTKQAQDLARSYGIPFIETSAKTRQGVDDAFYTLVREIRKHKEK
KRAS G12C, sequence (P62937 whole entry): as the sequence (P62937 whole entry) above
Outline: as §2

KRAS G12D = KRAS G12D (Homo sapiens, UniProt P01116+P62937, G12D); assay: as above; type: biochemical; conditions: read-out: KRAS G12D FRET data, IC50
KRAS G12D, sequence (P01116 1-169 isoform P01116-2 G12D limits assumed): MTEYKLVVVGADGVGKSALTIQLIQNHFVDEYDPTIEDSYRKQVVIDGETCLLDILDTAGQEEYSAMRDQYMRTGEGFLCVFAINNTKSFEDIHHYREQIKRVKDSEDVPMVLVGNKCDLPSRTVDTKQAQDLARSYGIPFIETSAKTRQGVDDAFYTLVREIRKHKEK
KRAS G12D, sequence (P62937 whole entry): as the sequence (P62937 whole entry) above
Outline: as §2

KRAS G13C = KRAS G13C (Homo sapiens, UniProt P01116+P62937, G13C); assay: as above; type: biochemical; conditions: read-out: KRAS G13C FRET data, IC50
KRAS G13C, sequence (P01116 1-169 isoform P01116-2 G13C): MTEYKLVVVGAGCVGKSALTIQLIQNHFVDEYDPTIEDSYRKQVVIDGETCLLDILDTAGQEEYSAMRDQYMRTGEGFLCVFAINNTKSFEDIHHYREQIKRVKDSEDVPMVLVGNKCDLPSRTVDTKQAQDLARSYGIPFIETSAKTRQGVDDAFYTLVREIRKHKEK
KRAS G13C, sequence (P62937 whole entry): as the sequence (P62937 whole entry) above
Outline: as §2

NRAS Q61R = NRAS Q61R (Homo sapiens, UniProt P01111+P62937, Q61R); assay: as above; type: biochemical; conditions: NRAS Q61R; read-out: NRAS Q61R FRET data IC50
NRAS Q61R, sequence (P01111 whole entry Q61R): as the sequence (P01111 whole entry G12C) above, with C12G, Q61R counted along it
NRAS Q61R, sequence (P62937 whole entry): as the sequence (P62937 whole entry) above
Outline: (§3)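 IC50 reflects compound-driven Ras:Cyclophilin A ternary complex displacing BRAF RBD, read as lowered TR-FRET ratio relative to DMSO after Eu anti-His (10 nM) and APC anti-GST (50 nM) detection for 1.5 h. Prior incubation 3 h, 25° C, with 12.5 nM GMPPNP-loaded Ras, 50 nM BRAF RBD, 25 μM Cyclophilin A; top compound 30 μM.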

NRAS Q61K = NRAS Q61K (Homo sapiens, UniProt P01111+P62937, Q61K); assay: as above; type: biochemical; conditions: NRAS Q61K; read-out: NRAS Q61K FRET data IC50
NRAS Q61K, sequence (P01111 whole entry Q61K): as the sequence (P01111 whole entry G12C) above, with C12G, Q61K counted along it
NRAS Q61K, sequence (P62937 whole entry): as the sequence (P62937 whole entry) above
Outline: as §3

NRAS WT = NRAS WT (Homo sapiens, UniProt P01111+P62937); assay: as above; type: biochemical; conditions: NRAS WT; read-out: NRAS WT FRET data IC50
NRAS WT, sequence (P01111 whole entry): as the sequence (P01111 whole entry G12C) above, with C12G counted along it
NRAS WT, sequence (P62937 whole entry): as the sequence (P62937 whole entry) above
Outline: as §3

KRAS Q61H = KRAS Q61H (Homo sapiens, UniProt P01116+P62937, Q61H); assay: as above; type: biochemical; conditions: KRAS Q61H; read-out: KRAS Q61H FRET data IC50
KRAS Q61H, sequence (P01116 1-169 isoform P01116-2 Q61H limits assumed): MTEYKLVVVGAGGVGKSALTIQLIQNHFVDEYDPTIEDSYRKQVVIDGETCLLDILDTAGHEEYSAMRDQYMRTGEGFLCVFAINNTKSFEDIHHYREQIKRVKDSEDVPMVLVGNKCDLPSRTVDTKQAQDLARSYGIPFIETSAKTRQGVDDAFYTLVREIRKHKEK
KRAS Q61H, sequence (P62937 whole entry): as the sequence (P62937 whole entry) above
Outline: as §3

Structure (SMILES) | IC50 (NCI-H358 (K-Ras G12C)) | IC50 (Capan-1 (K-Ras G12V)) | IC50 (KRAS G13D) | IC50 (KRAS G12V) | IC50 (KRAS G12S) | IC50 (NRAS G12C) | IC50 (KRAS WT) | IC50 (KRAS G12C) | IC50 (KRAS G12D) | IC50 (KRAS G13C) | IC50 (NRAS Q61R) | IC50 (NRAS Q61K) | IC50 (NRAS WT) | IC50 (KRAS Q61H)
CCn1c(-c2cccnc2[C@H](C)OC)c2c3cc(ccc31)-c1csc(n1)C[C@H](NC(=O)[C@H](C(C)C)N(C)C(=O)N1CC[C@@H]1CN(C)C)C(=O)N1CCC[C@H](N1)C(=O)OCC(C)(C)C2 [Example A502] | 10 to 100 nM | 100 to 1000 nM | 100 to 1000 nM | 1000 to 10000 nM | 100 to 1000 nM | 100 to 1000 nM | 100 to 1000 nM | 100 to 1000 nM | 100 to 1000 nM | 100 to 1000 nM | 100 to 1000 nM | 100 to 1000 nM | 100 to 1000 nM | 10 to 100 nM
CCn1c(-c2cccnc2[C@H](C)OC)c2c3cc(ccc31)-c1csc(n1)C[C@H](NC(=O)[C@H](C(C)C)N(C)C(=O)N(C)C[C@@H]1CCCN1C)C(=O)N1CCC[C@H](N1)C(=O)OCC(C)(C)C2 [Example A504] | 100 to 1000 nM | 100 to 1000 nM | 100 to 1000 nM | 1000 to 10000 nM | 1000 to 10000 nM | 100 to 1000 nM | 100 to 1000 nM | 100 to 1000 nM | 1000 to 10000 nM | 100 to 1000 nM | 1000 to 10000 nM | 1000 to 10000 nM | 100 to 1000 nM | 100 to 1000 nM
CCn1c(-c2cccnc2[C@H](C)OC)c2c3cc(ccc31)-c1csc(n1)C[C@H](NC(=O)[C@H](C(C)C)N(C)C(=O)N1CC3(CCN(C)CC3)C1)C(=O)N1CCC[C@H](N1)C(=O)OCC(C)(C)C2 [Example A513] | 10 to 100 nM | 10 to 100 nM | 100 to 1000 nM | 100 to 1000 nM | 100 to 1000 nM | 100 to 1000 nM | 100 to 1000 nM | 100 to 1000 nM | 1000 to 10000 nM | 100 to 1000 nM | 100 to 1000 nM | 100 to 1000 nM | 100 to 1000 nM | 100 to 1000 nM
CCn1c(-c2cccnc2[C@H](C)OC)c2c3cc(ccc31)-c1csc(n1)C[C@H](NC(=O)[C@H](C(C)C)N(C)C(=O)N1CCC[C@H]1CN(C)C)C(=O)N1CCC[C@H](N1)C(=O)OCC(C)(C)C2 [Example A519] | 1000 to 10000 nM | 1000 to 10000 nM | 1000 to 10000 nM | 1000 to 10000 nM | 1000 to 10000 nM | 100 to 1000 nM | 100 to 1000 nM | 100 to 1000 nM | 1000 to 10000 nM | 1000 to 10000 nM | 1000 to 10000 nM | 1000 to 10000 nM | 100 to 1000 nM | 100 to 1000 nM
CCn1c(-c2cccnc2[C@H](C)OC)c2c3cc(ccc31)-c1csc(n1)C[C@H](NC(=O)[C@H](C1CCCC1)N(C)C(=O)N1CCN(C)CC1)C(=O)N1CCC[C@H](N1)C(=O)OCC(C)(C)C2 [Example A525] | 10 to 100 nM | 10 to 100 nM | 100 to 1000 nM | 100 to 1000 nM | 100 to 1000 nM | 100 to 1000 nM | 100 to 1000 nM | 100 to 1000 nM | 1000 to 10000 nM | 100 to 1000 nM | 100 to 1000 nM | 100 to 1000 nM | 100 to 1000 nM | 100 to 1000 nM
CCn1c(-c2cccnc2[C@H](C)OC)c2c3cc(ccc31)-c1csc(n1)C[C@H](NC(=O)[C@H](C(C)C)N(C)C(=O)N1CC([C@H](C)NC)C1)C(=O)N1CCC[C@H](N1)C(=O)OCC(C)(C)C2 [Example A535] | 100 to 1000 nM | 100 to 1000 nM | 100 to 1000 nM | 100 to 1000 nM | 100 to 1000 nM | 100 to 1000 nM | 100 to 1000 nM | 100 to 1000 nM | 1000 to 10000 nM | 100 to 1000 nM | 100 to 1000 nM | 100 to 1000 nM | 100 to 1000 nM | 100 to 1000 nM
CCn1c(-c2cccnc2[C@H](C)OC)c2c3cc(ccc31)-c1csc(n1)C[C@H](NC(=O)[C@H](C(C)C)N(C)C(=O)N1CC3CCN(C)CC31)C(=O)N1CCC[C@H](N1)C(=O)OCC(C)(C)C2 (stereo partly drawn) [Example A539] | 100 to 1000 nM | 100 to 1000 nM | 1000 to 10000 nM | 1000 to 10000 nM | 1000 to 10000 nM | 100 to 1000 nM | 1000 to 10000 nM | 1000 to 10000 nM | 1000 to 10000 nM | 1000 to 10000 nM | 1000 to 10000 nM | 1000 to 10000 nM | 1000 to 10000 nM | 1000 to 10000 nM
CCn1c(-c2cccnc2[C@H](C)OC)c2c3cc(ccc31)-c1csc(n1)C[C@H](NC(=O)[C@H](C(C)C)N(C)C(=O)N1C3CC1CN(C)C3)C(=O)N1CCC[C@H](N1)C(=O)OCC(C)(C)C2 [Example A541] | 10 to 100 nM | 100 to 1000 nM | 1000 to 10000 nM | 100 to 1000 nM | 100 to 1000 nM | 100 to 1000 nM | 100 to 1000 nM | 100 to 1000 nM | 1000 to 10000 nM | 100 to 1000 nM | 100 to 1000 nM | 100 to 1000 nM | 100 to 1000 nM | 100 to 1000 nM
CCn1c(-c2cccnc2[C@H](C)OC)c2c3cc(ccc31)-c1csc(n1)C[C@H](NC(=O)[C@H](C(C)C)N(C)C(=O)N1CCN3CCOC[C@@H]3C1)C(=O)N1CCC[C@H](N1)C(=O)OCC(C)(C)C2 [Example A547] | 10 to 100 nM | 10 to 100 nM | 1000 to 10000 nM | 100 to 1000 nM | 100 to 1000 nM | 100 to 1000 nM | 100 to 1000 nM | 100 to 1000 nM | 1000 to 10000 nM | 100 to 1000 nM | 100 to 1000 nM | 100 to 1000 nM | 100 to 1000 nM | 100 to 1000 nM
